The text below walks through data of ChEMBL document CHEMBL1777747, “Design and synthesis of an ER-specific fluorescent probe based on carboxylesterase activity with quinone methide cleavage process” (Bioorg Med Chem Lett, 2011).

Data set [1] deals with T1, Cocaine esterase (Homo sapiens, UniProt O00748).
T1 sequence (O00748 whole entry): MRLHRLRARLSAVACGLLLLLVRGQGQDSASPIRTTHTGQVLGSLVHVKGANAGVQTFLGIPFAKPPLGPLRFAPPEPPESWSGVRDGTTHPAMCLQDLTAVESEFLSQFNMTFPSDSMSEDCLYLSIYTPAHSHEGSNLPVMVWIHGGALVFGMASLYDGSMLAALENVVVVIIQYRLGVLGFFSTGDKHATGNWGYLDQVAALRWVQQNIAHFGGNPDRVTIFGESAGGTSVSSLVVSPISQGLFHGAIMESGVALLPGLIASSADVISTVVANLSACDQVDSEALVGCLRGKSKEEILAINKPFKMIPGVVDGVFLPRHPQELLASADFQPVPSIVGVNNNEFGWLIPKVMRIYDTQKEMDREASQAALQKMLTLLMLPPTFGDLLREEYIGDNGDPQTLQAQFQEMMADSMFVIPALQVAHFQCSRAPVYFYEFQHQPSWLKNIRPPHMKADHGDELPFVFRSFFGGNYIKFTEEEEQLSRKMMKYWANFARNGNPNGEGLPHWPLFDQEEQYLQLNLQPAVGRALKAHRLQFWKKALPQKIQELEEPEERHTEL
In words: Activity at carboxylesterase in human HT-1080 cells assessed as accumulation of resorufin in nucleus at 50 uM after 120 mins by phase contrast microscopic analysis. The class given is ADME, cell-based. The following applies: ht-1080, 2 h.

In data set [2] the target is T1, Cocaine esterase. Nature of the data set: Activity at carboxylesterase in human HT-1080 cells assessed as accumulation of resorufin in endoplasmic reticulum at 50 uM after 120 mins by phase contrast microscopic analysis. The class given is ADME, cell-based. The following applies: ht-1080, 2 h.
Another data set is filed under the species Sus scrofa. In words: Activity at porcine liver esterase assessed as amount of enzyme required to liberate 1 umol of resorufin/min from compound by fluorescence assay.
A further data set deals with HT-1080. Nature of the data set: Cytotoxicity against human HT1080 cells by trypan blue method. The class given is cell-based.
In another data set the test system is COS-1. Nature of the data set: Cytotoxicity against african green monkey COS1 cells by trypan blue method. The class given is cell-based. The settings on record: chlorocebus aethiops.
A short description of data set [3]: Activity at carboxylesterase in african green monkey COS1 cells assessed as accumulation of resorufin in nucleus at 50 uM after 120 mins by phase contrast microscopic analysis. The settings on record: chlorocebus aethiops, cos-1, 2 h. The class given is ADME, cell-based.
Data set [4] in a line: Activity at carboxylesterase in african green monkey COS1 cells assessed as accumulation of resorufin in endoplasmic reticulum at 50 uM after 120 mins by phase contrast microscopic analysis. The settings on record: chlorocebus aethiops, cos-1, 2 h. The class given is ADME, cell-based.

Structures are written as SMILES.

Take `CCCC(=O)Oc1ccc(COc2ccc3nc4ccc(=O)cc-4oc3c2)cc1`: the Activity result was “Active” at Cocaine esterase [1]; “Active” on Cocaine esterase [2]; 0.05 U/mg in the data set listed under Sus scrofa; “Non-toxic” with HT-1080; “Non-toxic” in the data set on COS-1; “Active” in data set [3]. Also, the outcome in data set [4] was Active.
